The text below walks through data of patent US20060058227A1, “Hedgehog-related prophylaxis, therapy and diagnosis of gi tract carcinogenesis” (Academisch Ziekenhulis bij de Universiteit van Amsterdam, priority 2002, published 2006).

Experiment [1] concerns colonic epithelial cell differentiation. Briefly: Cyclopamine treatment of rats: markers of colonic epithelial differentiation (Western blot, H&E, immunohistochemistry). To be noted: for carbonic anhydrase (CA) IV expression in enterocytes / intestinal trefoil factor expression in the enterocytes / Villin distribution in enterocytes: rat colon; for carbonic anhydrase (CA) IV expression in enterocytes: CA IV immunohistochemistry, cyclopamine treated vs control (FIG. 11G,H); for intestinal trefoil factor expression in the enterocytes: ITF immunohistochemistry, cyclopamine treated vs control (FIG. 11I-L); for Villin distribution in enterocytes: Villin immunohistochemistry, cyclopamine treated vs control (FIG. 11E,F); for enterocyte maturation / terminal differentiation of enterocytes in the colon: H&E and immunohistochemistry. The format is in vivo, rat. The protocol: (§1) Formalin fixed paraffin embedded human biopsy and resection specimens of uninflamed colonic mucosa, sporadic adenomas, sporadic carcinomas and adenomas from patients with FAP were obtained from the archives of the pathology department of the Academic Medical Center following institutional standards for human subject research. Immunohistochemistry was performed on 4μ sections using a three-step diaminobenzidine (DAB) detection method with antigen retrieval as described in detail previously (van den Brink et al., 2000). For BrdU visualisation, sections were incubated in 2N HCl at 37° C. for 60 minutes after deparaffinization and then washed in boric acid pH 8.5. Sections were counterstained with Mayer's hematoxylin, except when stained for HNF3β, engrailed-1 or β-catenin to allow optimal visualisation of nuclear staining. BrdU positive nuclei were scored as described (van den Brink et al., 2001).
(§2) The distal half of the rat colon was dissected along the longitudinal axis and one half was homogenised and processed for Western blotting as described below. Murine stomach and small intestine were homogenised in lysis buffer (300 mmol/L NaCl, 30 mmol/L Tris, 2 mmol/L MgCl2, 2 mmol/L CaCl2, 1% Triton X-100, pH 7.4, supplemented with 1 tablet of protease inhibitor [Roche] per 50 ml). Protein concentration was measured using the Bradford method. Lysates were diluted 1:3 in protein sample buffer (125 mmol/L Tris/HCl, pH 6.8; 4% sodium dodecyl sulfate; 2% β-mercaptoethanol; 20% glycerol, 1 mg bromophenol blue), and 100-200 μof homogenate was loaded per lane on a sodium dodecyl sulfate-pol-yacrylamide gel electrophoresis gel. After protein separation, the proteins were blotted on to a PVDF membrane (Millipore, Bedford, Mass.). Membranes were blocked with 2% protifar (Nutricia, Zoetermeer, The Netherlands) in phosphate-buffered saline (PBS), supplemented with 0.1% Tween-20 for 1 hour at room temperature. After a brief wash in washing buffer (0.2% protifar; 0.1% Tween-20), membranes were incubated overnight at 4° C. with antibody diluted in washing buffer at the indicated concentration. The next day, membranes were washed 3 times for 5 minutes each and subsequently incubated with a secondary horseradish peroxidase tHRP)-conjugated antibody in a 1:2000 dilution. After enhanced chemoluminescence using Lumilight^+ substrate (Roche, Mannheim, Germany), antibody binding was visualised using a Lumi-Imager (Boehringer Mannheim, Mannheim, Germany).
(§3) In addition to the mice described above, 8-week-old female Wistar rats (n=7) were treated with daily intraperitoneal injections of 1 mg/kg of the Hedgehog inhibitor cyclopamine complexed with 2-hydroxypropyl-β-cyclodextrin (HBC; Sigma) as described (van den Brink et al., 2001). Control rats (n=7) received solvent only. After 14 days, rats were given a single intraperitoneal injection of 150 mg/kg BrdU one hour before being killed.
(§4) The distal half of the rat colon was dissected along the longitudinal axis and one half was homogenised and processed for Western blotting as described (van den Brink et al., 2001). To study Shh expression in the human GI tract we used specimens from the archives of the department of pathology of the Academic Medical Center and the Department of Pathology of the Massachusetts General Hospital and Brigham and Women's Hospital. We examined tissue with normal histology of at least 6 different patients to investigate each site along the normal GI tract for Shh expression. Other specimens included: tissue from 16 different patients with intestinal metaplasia of the stomach, 13 resection specimens of Meckel's diverticulum and 6 resection specimens of patients with Barrett's esophagus.
On the technique in general: A western blot detects proteins with antibodies after separation by electrophoresis.

The subject of a further experiment is Hh signalling. Put plainly: Cyclopamine treatment of rats: Western blots of putative Hedgehog regulated proteins in colonic homogenates. It is filed as in vivo. To be noted: adult rat colon homogenate, Western blot. The protocol:
as §2, §3, §4

Experiment [2] relates to precursor cell proliferation in the adult colon. Put plainly: Cyclopamine treatment of rats: markers of proliferation in the adult colon (Western blot, BrdU labelling). It is filed as in vivo, rat. The protocol: as §1, §2
In addition to the mice described above, 8-week-old female Wistar rats (n=7) were treated with daily intraperitoneal injections of 1 mg/kg of the Hedgehog inhibitor cyclopamine complexed with 2-hydroxypropyl-β-cyclodextrin (HBC; Sigma) as described (van den Brink et al., 2001). Control rats (n=7) received solvent only. […]

The next experiment concerns HT-29 cells. Briefly: Butyrate induced differentiation of HT-29 cells, with or without cyclopamine (Western blot). The format is cell-based. To be noted: HT-29 cultures, 2 μ/ml cyclopamine plus butyrate, 24 hours, Western blot (FIGS. 13a,b). Here is the method:
as §2
HT 29 colon cancer cell lines were cultured according to routine procedures in the presence of 10% fetal calf serum (GIBCO). Recombinant Shh (R&D systems) was used at the indicated concentrations; Butyrate (Sigma) was used at a 5 mM concentration.

As for `CC1=C2C[C@H]3[C@@H](CC=C4C[C@@H](O)CC[C@@]43C)[C@@H]2CC[C@]12O[C@@H]1C[C@H](C)CN[C@H]1[C@H]2C` [cyclopamine], the “Intestinal trefoil factor (ITF/TFF3) expression, goblet cell lineage marker” value in experiment [1] (adult rat colon homogenate, Western blot, cyclopamine 1 mg/kg i.p. daily for 14 days (FIG. 4, P=0.008)) is reported as “strong induction”. Also, the “expression of Villin, marker of enterocyte differentiation” value in experiment [1] (adult rat colon homogenate, Western blot, cyclopamine 1 mg/kg i.p. daily for 14 days (FIG. 4, P=0.02)) is “reduced”. Besides, in experiment [1], the “carbonic anhydrase (CA) IV expression in enterocytes” value was “loss”, the “intestinal trefoil factor expression in the enterocytes” value is listed as “induction” and the “Villin distribution in enterocytes” value is “villin-redistribution”. In experiment [1] (listed as Cyclopamine), the “carbonic anhydrase (CA) IV expression in enterocytes” value is reported as “Loss”; the “intestinal trefoil factor expression in the enterocytes” value was “strong immunoreactivity”; the “Villin distribution in enterocytes” value is “apical staining is diminished and cytoplasmic staining enhanced”. The “enterocyte maturation / terminal differentiation of enterocytes in the colon” value in experiment [1] (rat distal colon, cyclopamine treated vs control (FIG. 11)) is listed as “inhibited”. The “enterocyte maturation / terminal differentiation of enterocytes in the colon” value in experiment [1] (rat distal colon, cyclopamine treated vs control (FIG. 11), listed as Cyclopamine) is “disturbs”. In experiment [1] (rat distal colon, H&E, cyclopamine treated vs control (FIG. 11)), the “histoarchitecture of the colon” value is recorded as “dramatic changes”. Further, in the experiment on Hh signalling (cyclopamine 1 mg/kg i.p. daily for 14 days vs solvent controls (FIG. 3, P=0.0001)), the “levels of BMP4” value was “markedly induced”. In addition, the HNF3β protein level result in the experiment with Hh signalling (cyclopamine 1 mg/kg i.p. daily for 14 days vs solvent controls (FIG. 3, P=0.001)) is “dramatically upregulated”. Moreover, in the experiment with Hh signalling (cyclopamine 1 mg/kg i.p. daily for 14 days vs solvent controls (FIG. 3, P=0.002)), the engrailed-1 protein level result is “dramatically upregulated”. For the same compound, the GATA-6 protein level entry with Hh signalling (cyclopamine 1 mg/kg i.p. daily for 14 days vs solvent controls (FIG. 3, P=0.005)) was “significantly downregulated”. The “Ihh expression under Hh inhibition” value with Hh signalling (cyclopamine 1 mg/kg i.p. daily for 14 days vs solvent controls (FIG. 3, P=0.08)) is recorded as “not necessary for maintenance of its own expression”. In the experiment on Hh signalling (cyclopamine 1 mg/kg i.p. daily for 14 days vs solvent controls (FIG. 3, P=0.25)), the “expression levels of BMP-2” value is reported as “no effect”. Besides, in experiment [2] (adult rat colon homogenate, Western blot, cyclopamine 1 mg/kg i.p. daily for 14 days (FIG. 4, P<0.0001)), the “expression of PCNA” value is reported as “increased”. The “expression of cyclin D1” value in experiment [2] (adult rat colon homogenate, Western blot, cyclopamine 1 mg/kg i.p. daily for 14 days (FIG. 4, P=0.01)) is “increased”. Besides, the “mitogenesis (PCNA, cyclin D1, BrdU labelled epithelial precursor cells)” value in experiment [2] (adult rat colon, cyclopamine treated vs control (FIG. 12)) is given as “enhanced”. In experiment [2] (adult rat colon, cyclopamine 1 mg/kg i.p. daily for 14 days, BrdU 150 mg/kg one hour before killing (FIG. 4, P=0.036)), the “incorporation of 5-bromo-2′-deoxyuridine (BrdU labelled cells per crypt)” value is recorded as “increased”. In the experiment with HT-29 cells, the “butyrate mediated induction of E-cadherin” value is on record as “significantly reduced”, the “butyrate mediated induction of Villin” value was “significantly reduced” and the “butyrate mediated induction of cip-1” value is given as “significantly reduced”.
